Test results taken from patent US20170273921A1, “3,5,N-TRIHYDROXY-ALKANAMIDE OR 3,5,N-TRIHYDROXY-6-ALKENAMIDE DERIVATIVE ALONE OR IN COMBINATION WITH CHEMOTHERAPEUTIC AGENT FOR TREATING CANCER” (National Taiwan University, priority 2014, published 2017).
Where two headings read alike, the source gives them in different places.

Key:
A549-Luc cells = assay: Orthotopic lung cancer model (A549-Luc, IVIS imaging); format: in vivo, NOD/SCID mice; settings: single agent; JMF3086 oral 5 days/week or cisplatin i.p. once a week, two weeks; FIG. 3B
Experimental: In this Example, we use A549 cells [non-small cell lung cancer cell line with KRAS mutations (EGFR wild-type)] to establish the orthotopic lung cancer models. Seven-week-old male NOD/SCID mice were anesthetized by continuous flow of 2-3% isoflurane. A549-Luc cells (2×10^6) suspended in 40 μl of PBS were injected percutaneously into the right lung of the mice using 500 μl Gas-Tight syringes with 27G top winged infusion set. These mice were then given endotoxon-free luciferse substrate and photographed using IVIS-200 imaging system once a week. When lung tumor nodules were detected, the mice were oral administration of JMF3086 (5 days/week), intraperitoneally administered cisplatin (once a week) or a combination of JM3086 and cisplatin for additional two weeks (FIG. 3A).

AOM/DSS-induced CRC = assay: Animal model of AOM/DSS-induced CRC; format: in vivo, male C57BL/6 mice; settings: single agent; JMF3086 25 mg/kg oral 5 days/week or oxaliplatin 5 mg/kg i.p. once a week, two weeks; FIG. 1B
Experimental: FIGS. 1A and 1B show the effect of a 3,5,N-trihydroxy-alkanamide derivative, JMF3086, combined with oxaliplatin on colitis-induced colorectal cancer in vivo. Mice were intraperitoneally injected with AOM (12.5 mg/kg) and maintained for 7 days, then subjected to 3 cycles of DSS treatment (1 cycle representing 5 days of 3.5% DSS followed by 14 days of H2O). […] Scale bars: 1 mm **P<0.01 versus vehicle.
AOM in conjunction with the additional DSS inflammatory stimulus results in tumor development that is restricted to the colon in mice (11, 12). This model is widely utilized to recapitulate human colorectal cancer because it results in inflammation and ulceration of the entire colon, similar to what is observed in patients (12). CRC was induced in male C57BL/6 mice via the intraperitoneal injection of AOM (12.5 mg/kg) while the mice were maintained with a regular diet and drinking water for 7 days and then subjecting to 3 cycles of DSS treatment, with each cycle consisting of the administration of 3.5% DSS for 5 days followed by a 14-day recovery period with regular water (FIG. 1A). […]

[1] = test system: various human cancer cell lines; assay: Cell viability by MTT cell proliferation assay; format: cell-based
Experimental: Human […] cancer cells (Hela) and breast cancer cells (MD-MBA-231, MCF7) were seeded at 3000 cells/well in 96-well plates and maintained for 14-16 hours, then treated with JMF3086 or gemcitabine or both. After 72 hours, cells were washed with PBS then added medium containing MTT reagent (Sigma) at a final concentration of 0.5 mg/ml for 4 hours. Then, the medium was replaced with 200 μl of DMSO for 30 minutes, and using an ELISA reader (570 nm) to get the absorbance density values. The 50% of inhibition concentration (IC50) of death cells was calculated.
Effect of three 3,5,N-trihydroxy-alkanamide derivatives, JMF3086, (3R,5R)-7-{(1S,2S,6R,8S,8aR)-hexahydro-2,6-dimethyl-8-[2-dimethylbutyryloxy]naphthalenyl}-3,5-dihydroxy-N-hydroxyheptanamide (also referred to as JMF3171), and (3R,5R)-7-{[2-(4-fluoro-phenyl)-5isopropyl-3-phenyl-4-phenylcarbamoylpyrrol-1-yl]-3,5-dihydroxy-N-hydroxyheptanamide (also referred to as JMF3173) and the corresponding statins on the cell viability of various human cancer cell lines was determined by cell proliferation assay as described in Example 4. Specifically, cancer cells were treated with various concentrations of test compounds for 72 hours, and cell viability was measured by MTT assay. The half maximal inhibitory concentration (IC50) values for individual cell line were calculated.

[2] = test system: bindings of acetyl-H3K27, CBP, HDAC1 and HDAC3 to promoter; assay: Quantitative ChIP (qChIP) assay of promoter binding in HCT116 cells; format: cell-based, human; settings: FIG. 5D
Experimental: FIGS. 5A to 5D show genome-wide analysis of target genes in 3,5,N-trihydroxy-alkanamide derivative-treated colorectal cancer cells. […] Ingenuity Pathways Analysis (IPA) analysis predicted that the genes associated with apoptosis were regulated by NR3C1. P=4.30E-37. […] The molecular network has a P-score (−log10 (p-value)) of 48. […] Data were analyzed by the Q-PCR and plotted as percent (%) of input DNA. *P<0.05, **P<0.01 versus basal, two-sided Student t test.
(§1) Colorectal cancer cells (HCT116) were treated with 30 μM JMF3086 for 24 hours, ChIP assays using control Rabbit IgG (sc-2027; Santa Cruz) or anti-H3K27-ac antibody (#4353; Cell Signaling) were performed as previously described (14).
To further investigate these differential effects of JMF3086, the bindings of acetyl-H3K27, CBP, HDAC1 and HDAC3 to promoter were examined by quantitative ChIP (qChIP) assays. JMF3086 reduced the bindings of acetyl-H3K27 and CBP to the promoters of TNF-α, CD166, COX-2, BCL2, CXCL1, CXCL2, EpCAM, CD44, Cyclin D1 and MCL1, but increased those of HDAC1 and HDAC3 to the promoters (FIG. 5D). In contrast, JMF3086 increased the bindings of acetyl-H3K27 and CBP to the promoters of TIMP3, BMP2 and p53 but decreased those of HDAC1 and HDAC3 to their promoters (FIG. 5D).

[3] = test system: angiogenesis (neovessel formation in matrigel plugs); assay: Subcutaneous matrigel plug angiogenesis assay with conditioned medium of hypoxic HCT116 cells; format: in vivo, nude mice; settings: HCT116 treated with 30 μM JMF3086 for 20 hours, hypoxia 4 hours; plugs after 14 days; FIG. 2F
Experimental: Angiogenesis is an essential step of tumor growth and metastasis (13). To determining the effect of JMF3086 on angiogenesis, HCT116 cells treated with 30 μM JMF3086 for 20 hours were exposed to hypoxia for 4 hours, then conditional medium was collected and subcutaneous matrigel plug assay was conducted by injecting of 75 μl conditional medium mixed with 425 μl matrigel and 50 U heparin/ml into nude mice (5 mice/group). Mice were sacrificed and dissected after 14 days. Matrigel plug retrieved from mice were photographed. Quantification of neovessel formation in matrigel plugs were estimated using Drabkin reagent kit 525.

[4] = test system: colorectal cancer cells (HCT116); assay: Experimental colorectal cancer metastasis to the lung (HCT116 injected via tail vein); format: in vivo, nude mice; settings: JMF3086 100 mg/kg; FIG. 2E
Experimental: Besides, to examine the anti-metastatic activity of JMF3086, colorectal cancer cells (HCT116) were intravenously injected into nude mice via the tail vein (FIG. 2D). JMF3086 (100 mg/kg) reduced lung tumor nodules by macroscopic observation (FIG. 2E), indicating its inhibition on lung metastasis.

[5] = test system: HT29-Luciferase expressing cells; assay: Experimental colorectal cancer metastasis to the liver (HT29-Luciferase cells injected into spleen, IVIS imaging); format: in vivo, NOD/SCID mice; settings: single agent; JMF3086 oral 5 days/week, oxaliplatin or irinotecan i.p. once a week, two weeks; FIGS. 2B and 2C
Experimental: Seven-week-old female NOD/SCID mice were obtained from the National Laboratory Animal Center. The mice were anesthetized by continuous flow of 2-3% isoflurane. To generate liver metastases derived from human colorectal cancer cells in mouse models, HT29-Luciferase expressing cells (1×10^6) were suspended in 100 μl PBS and injected into the spleen of mice. After one-week recovery, the mice were randomized into vehicle and treatment group. […] Mice were then given endotoxon-free luciferse substrate and photographed by IVIS imaging system (Xenogen) once a week. Tumors in spleen and liver were collected and weighed after sacrificed.

[6] = test system: H3K27-Ac binding to gene promoters in HCT116; assay: ChIP-on-chip assay of H3K27-Ac in HCT116 cells; format: cell-based, human
Experimental: as §1
ChIP-on-chip assays were performed in the Microarray and Gene Expression Analysis Core Facility of the National Yang-Ming University VGH Genome Research Center in Taiwan using the SurePrint G3 Human Promoter 1×1M Kit (Agilent Technologies) after DNA was further purified through phenol/chloroform/isoamyl alcohol extraction and ethanol precipitation. Genes with two-fold down-regulation or up-regulation of H3K27-Ac in log-ratio after JMF 3086 treatment were regarded as significance.

[7] = HCT116, 30 μM, 24 hours, FIG. 5C

**Q.** `CCC(C)C(=O)O[C@H]1C[C@@H](C)C=C2C=C[C@H](C)[C@H](CC[C@@H](O)C[C@@H](O)CC(=O)NO)[C@H]21` (stereo partly drawn) [JMF3086, (3R,5R)-7-{(1S,2S,6R,8S,8aR)-hexahydro-2,6-dimethyl-8-[2-methylbutyryloxy]naphthalenyl}-3,5-dihydroxy-N-hydroxyheptanamide] was tested. Which “lung cancer development (luciferase activity, IVIS)” value (A549-Luc cells) did it give?
**A.** The value was “ineffectively inhibited”.

**Q.** And the “number of tumors and sizes” value (AOM/DSS-induced CRC)?
**A.** The value was “modestly reduced”.

**Q.** What about the “cytotoxicity / cell viability” value [1] of the same compound?
**A.** The value was “cytotoxic”.

**Q.** What about the “bindings of HDAC1 and HDAC3 to the promoters of TIMP3, BMP2 and p53” value [2] of the same compound?
**A.** The value was “decreased”.

**Q.** What about the “bindings of HDAC1 and HDAC3 to the promoters of TNF-α, CD166, COX-2, BCL2, CXCL1, CXCL2, EpCAM, CD44, Cyclin D1 and MCL1” value [2] of the same compound?
**A.** Its value is “increased”.

**Q.** What about the “bindings of acetyl-H3K27 and CBP to the promoters of TIMP3, BMP2 and p53” value [2] of the same compound?
**A.** The value was “increased”.

**Q.** What about the “bindings of acetyl-H3K27 and CBP to the promoters of TNF-α, CD166, COX-2, BCL2, CXCL1, CXCL2, EpCAM, CD44, Cyclin D1 and MCL1” value [2] of the same compound?
**A.** The value was “reduced”.

**Q.** And the “angiogenesis induced by conditioned medium from HCT116 cells under hypoxia (matrigel plug)” value [3]?
**A.** Its value is “inhibited”.

**Q.** What about the “lung tumor nodules by macroscopic observation” value [4] of the same compound?
**A.** Its value is “reduced”.

**Q.** What about the “liver metastasis (luciferase activity, IVIS)” value (“liver metastasis” below) [5] of the same compound?
**A.** The value was “modestly inhibited”.

**Q.** What about the “number of genes with altered binding of H3K27-acetylation” value ([6]; HCT116, 30 μM JMF3086, 24 hours) of the same compound?
**A.** The value was “more than 10,000 genes”.

**Q.** And the “mRNA expression of genes of inflammation and proliferation, stemness of cancer, and anti-apoptosis” value ([6]; HCT116, 30 μM, 24 hours)?
**A.** Its value is “reduced”.

**Q.** And the “mRNA expression of tumor suppressors” value ([6]; HCT116, 30 μM, 24 hours)?
**A.** The value was “increased”.

**Q.** What about the “binding of H3K27-Ac to the gene promoters of inflammation and proliferation, stemness of cancer, and anti-apoptosis” value [6, 7] of the same compound?
**A.** The value was “inhibited”.

**Q.** What about the “binding of H3K27-Ac to the gene promoters of tumor suppressors” value [6, 7] of the same compound?
**A.** Its value is “increased”.

**Q.** How did the “cytotoxicity / cell viability” value [1] turn out when `CCC(C)(C)C(=O)O[C@H]1C[C@@H](C)C=C2C=C[C@H](C)[C@H](CC[C@@H](O)C[C@@H](O)CC(=O)NO)[C@H]21` [JMF3171, (3R,5R)-7-{(1S,2S,6R,8S,8aR)-hexahydro-2,6-dimethyl-8-[2-dimethylbutyryloxy]naphthalenyl}-3,5-dihydroxy-N-hydroxyheptanamide] was run?
**A.** Its value is “cytotoxic”.

**Q.** For `CC(C)c1c(C(=O)Nc2ccccc2)c(-c2ccccc2)c(-c2ccc(F)cc2)n1CC[C@@H](O)C[C@@H](O)CC(=O)NO` [JMF3173], which “cytotoxicity / cell viability” value ([1]; CRC and various cancer cell lines, 72 hours, MTT, FIG. 4) is on record?
**A.** The value was “cytotoxic”.

**Q.** With `N.N.[Cl][Pt][Cl]` [cisplatin, reference compound] as the compound, how does the “lung cancer development (luciferase activity, IVIS)” value (A549-Luc cells) read?
**A.** Its value is “ineffectively inhibited”.

**Q.** For `CCc1c2c(nc3ccc(OC(=O)N4CCC(N5CCCCC5)CC4)cc13)-c1cc3c(c(=O)n1C2)COC(=O)[C@]3(O)CC` [irinotecan], which “liver metastasis” value [5] is on record?
**A.** The value was “modestly inhibited”.

**Q.** With `O=C1[O][Pt]2([NH][C@@H]3CCCC[C@H]3[NH]2)[O]C1=O` [oxaliplatin, reference compound] as the compound, how does the “number of tumors and sizes” value (AOM/DSS-induced CRC) read?
**A.** The value was “modestly reduced”.

**Q.** What about the “liver metastasis” value [5] of the same compound?
**A.** Its value is “modestly inhibited”.
